# Tests used:
# Assay type in all cases: in vivo
# [1] = system: cucumber downy mildew (Pseudoperonospora cubensis (Berk. et Curt.) Rostov); test: Protective effect against cucumber downy mildew on potted plants; conditions: grading 100-0 (100 no infection, 0 most serious infection), read-out: protectant activity against cucumber downy mildew
# Protocol: (§1) Fungicidal activity of the compounds in the present invention against many kinds diseases were carried out. The procedure of fungicidal activity determination is as follows:
# (§2) The fungicidal activity was tested in vivo manner on the potted plants. The test compounds of the present invention were dissolved in proper solvent (choosing the solvent according their dissolving ability to the compounds, the solvents could be acetone, methanol or N,N-dimethylformide, etc. The volume ratio between solvent and liquid sprayed was equal to or less than 0.05) and dilute with water contain 0.1% Tween 80 to given concentrations. Compounds of present invention was sprayed onto the leaves of seedling according to the designed concentration. Meanwhile, water was set as the blank control, three replicates were set for each treatment, the spore suspension were inoculated on the second day after treatment, then the plants were placed in an artificial climate chamber (temperature: day 25° C., night 20° C., relative humidity 95 to 100%). 24 hours later, the plants were moved to green house to cultivated. The plants which not need to control humidity was inoculated spore suspension in green house and cultivated in green house directly. The results were investigated after the plants were fully infected relative to the blank control (usually one week). The test resluts grading 100-0 refers to the <A Manual of Assessment Keys for Plant Diseases> which edited by American Phytopathological Society. “100” refer to no infection and “0” refer to the most serious infection
# Protective effect against cucumber downy mildew (Pseudoperonospora cubensis (Berk. et Curt.) Rostov)
# According the test method described above, parallel test were carried out between compounds 2, 4, 11, 13, 71 and 111 of present invention and the known compounds KC1, KC2, KC3, KC4, KC5 and KC6 (The compounds were self-made and the structure was confirmed by ^1H NMR consistent with the description of the procedures).
# [2] = system: cucumber anthracnose (Colletotrichum orbiculare); test: Protective effect against cucumber anthracnose on potted plants; conditions: 400 ppm, foliar spray
# Protocol: as §1
# The fungicidal activity was tested in vivo manner on the potted plants. The test compounds of the present invention were dissolved in proper solvent (choosing the solvent according their dissolving ability to the compounds, the solvents could be acetone, methanol or N,N-dimethylformide, etc. The volume ratio between solvent and liquid sprayed was equal to or less than 0.05) and dilute with water contain 0.1% Tween 80 to given concentrations. Compounds of present invention was sprayed onto the leaves of seedling according to the designed concentration. Meanwhile, water was set as the blank control, three replicates were set for each treatment, the spore suspension were inoculated on the second day after treatment, then the plants were placed in an artificial climate chamber (temperature: day 25° C., night 20° C., relative humidity 95 to 100%). 24 hours later, the plants were moved to green house to cultivated. The plants which not need to control humidity was inoculated spore suspension in green house and cultivated in green house directly. The results were investigated after the plants were fully infected relative to the blank control (usually one week). […]
# [3] = system: corn rust (Puccinia sorghi Schw.); test: Protective effect against corn rust on potted plants; conditions: grading 100-0
# Protocol: as §1, §2
# Protective Effect Against Corn Rust (Puccinia sorghi Schw.):
# According the test method described above, parallel test were carried out between compound 13 of present invention and the known compound KC1.
# According the test method described above, parallel test were carried out between compound 11 of present invention and the known compound KC2.
# According the test method described above, parallel test were carried out between compound 71 of present invention and the known compounds KC5 and KC6.
smiles,measurement,setting,value
CCCCC(C)Oc1cccc(NC(=O)c2cn(C)nc2C(C)C)c1C (stereo not shown) [Compound 2],pest or weed control at 400 ppm,[1],100%
CCCCC(C)Oc1cccc(NC(=O)c2c(C)nn(C)c2Cl)c1C (stereo not shown) [Compound 4],protective effect against cucumber anthracnose,[2],≥ 80%
same,pest or weed control at 400 ppm,[1],100%
CCCCC(C)Oc1cccc(NC(=O)c2c(C(F)F)nn(C)c2Cl)c1C (stereo not shown) [Compound 11],pest or weed control at 400 ppm,[1],85%
same,protectant activity against corn rust,"[3]; 0.39 ppm, table 4",100
same,protectant activity against corn rust,"[3]; 1.5625 ppm, table 4",100
same,protectant activity against corn rust,"[3]; 6.25 ppm, table 4",100
CCCCC(C)Oc1cccc(NC(=O)c2cn(C)nc2C(F)(F)F)c1C (stereo not shown) [Compound 13],pest or weed control at 400 ppm,[1],100%
same,protectant activity against corn rust,"[3]; 6.25 ppm, table 3",100
same,protectant activity against corn rust,"[3]; 400 ppm, table 3",100
CCCCC(C)Oc1cccc(NC(=O)c2sc(C)nc2C(F)(F)F)c1C (stereo not shown) [Compound 71],pest or weed control at 400 ppm,[1],100%
same,protectant activity against corn rust,"[3]; 1.56 ppm, table 5",100
same,protectant activity against corn rust,"[3]; 6.25 ppm, table 5",100
same,protectant activity against corn rust,"[3]; 400 ppm, table 5",100
CCCC(C)Oc1cccc(NC(=O)c2sc(C(F)(F)F)nc2CC)c1C (stereo not shown) [Compound 111],pest or weed control at 400 ppm,[1],100%
"Cc1c(NC(=O)c2cn(C)nc2C(F)(F)F)cccc1OC(C)C [KC1, reference compound]",pest or weed control at 400 ppm,[1],0%
same,protectant activity against corn rust,"[3]; 6.25 ppm, table 3",50
same,protectant activity against corn rust,"[3]; 400 ppm, table 3",100
"Cc1c(NC(=O)c2c(C(F)(F)F)nn(C)c2Cl)cccc1OC(C)C [KC2, reference compound]",pest or weed control at 400 ppm,[1],0%
same,protectant activity against corn rust,"[3]; 0.39 ppm, table 4",0
same,protectant activity against corn rust,"[3]; 1.5625 ppm, table 4",65
same,protectant activity against corn rust,"[3]; 6.25 ppm, table 4",100
"Cc1nn(C)cc1C(=O)Nc1cccc(OC(C)C)c1C [KC3, reference compound]",pest or weed control at 400 ppm,[1],0%
"Cc1nn(C)c(Cl)c1C(=O)Nc1cccc(OC(C)C)c1C [KC4, reference compound]",pest or weed control at 400 ppm,[1],0%
"Cc1nc(C)c(C(=O)Nc2cccc(OC(C)C)c2)s1 [KC5, reference compound]",pest or weed control at 400 ppm,[1],0%

# Reference: US10315998B2, “Amide compound and the preparation method and use thereof” (SHENYANG SINOCHEM AGROCHEMICALS R&D CO., LTD, priority 2015, dated 2019)
